Results reported in PubChem BioAssay (NCI).
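How tested: cells in 96-well plates exposed to compound for 48 hours at five concentrations. TGI: concentration producing complete growth inhibition.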

Tests used:
Assay in all cases: DTP human tumour cell line panel, 48 h
M14 melanoma = system: M14 melanoma
NCI-H226 lung = system: NCI-H226 lung
LOX IMVI melanoma = system: LOX IMVI melanoma
TK-10 renal = system: TK-10 renal
HCT-116 colon = system: HCT-116 colon
OVCAR-4 ovarian = system: OVCAR-4 ovarian
KM12 colon = system: KM12 colon
SNB-19 CNS = system: SNB-19 CNS

SMILES: CN(NC(=O)c1cccs1)C1=NCCCCN1
- TGI (M14 melanoma): > 100 µM
- TGI (NCI-H226 lung): > 100 µM
- TGI (LOX IMVI melanoma): > 100 µM
- TGI (TK-10 renal): > 100 µM
- TGI (HCT-116 colon): > 100 µM
- TGI (OVCAR-4 ovarian): > 100 µM
- TGI (KM12 colon): > 100 µM
- TGI (SNB-19 CNS): > 100 µM

SMILES: CN(C)S(=O)(=O)/N=C/c1cccc(/C=N/S(=O)(=O)N(C)C)c1
- TGI (M14 melanoma): > 100 µM
- TGI (NCI-H226 lung): > 100 µM
- TGI (LOX IMVI melanoma): > 100 µM
- TGI (TK-10 renal): > 100 µM
- TGI (HCT-116 colon): > 100 µM
- TGI (OVCAR-4 ovarian): > 100 µM
- TGI (KM12 colon): > 100 µM
- TGI (SNB-19 CNS): > 100 µM

SMILES: CC1Oc2c(c(=O)oc3ccccc23)[C@@]1(C)CC1C[C@H](C)C(=O)O1 (some centres not stated)
- TGI (M14 melanoma): 39.6 µM
- TGI (NCI-H226 lung): > 100 µM
- TGI (LOX IMVI melanoma): > 100 µM
- TGI (TK-10 renal): > 100 µM
- TGI (HCT-116 colon): 28.4 µM
- TGI (KM12 colon): > 100 µM
- TGI (SNB-19 CNS): > 100 µM

SMILES: Clc1cc(Cl)cc(C2ON=C(c3ccccc3)N2C23CC4CC(CC(C4)C2)C3)c1 (configuration not stated)
- TGI (M14 melanoma): > 10 µM
- TGI (NCI-H226 lung): > 10 µM
- TGI (LOX IMVI melanoma): > 10 µM
- TGI (TK-10 renal): > 10 µM
- TGI (HCT-116 colon): > 10 µM
- TGI (OVCAR-4 ovarian): > 10 µM
- TGI (KM12 colon): > 10 µM
- TGI (SNB-19 CNS): > 10 µM

SMILES: CC(=O)O[C@H]1/C(=C/c2ccncc2)C[C@H]2[C@@H]3CC=C4C[C@@H](N5CCCC5)CC[C@]4(C)[C@H]3CC[C@]12C
- TGI (M14 melanoma): 23.8 µM
- TGI (NCI-H226 lung): 38 µM
- TGI (LOX IMVI melanoma): 6.82 µM
- TGI (TK-10 renal): 29.5 µM
- TGI (HCT-116 colon): 15.3 µM
- TGI (OVCAR-4 ovarian): 37.7 µM
- TGI (KM12 colon): 26.2 µM
- TGI (SNB-19 CNS): 31.9 µM

SMILES: CN(C)CCN=C1Nc2ccccc2C(=S)N2CSCC12 (configuration not stated)
- TGI (M14 melanoma): > 100 µM
- TGI (NCI-H226 lung): > 100 µM
- TGI (LOX IMVI melanoma): > 100 µM
- TGI (TK-10 renal): > 100 µM
- TGI (HCT-116 colon): > 100 µM
- TGI (OVCAR-4 ovarian): > 100 µM
- TGI (KM12 colon): > 100 µM
- TGI (SNB-19 CNS): > 100 µM

SMILES: CC(=O)NC(CCC(=O)C=[N+]=N)C(=O)O (configuration not stated)
- TGI (M14 melanoma): > 100 µM
- TGI (NCI-H226 lung): > 100 µM
- TGI (LOX IMVI melanoma): > 100 µM
- TGI (TK-10 renal): > 100 µM
- TGI (HCT-116 colon): > 100 µM
- TGI (OVCAR-4 ovarian): > 100 µM
- TGI (KM12 colon): > 100 µM
- TGI (SNB-19 CNS): > 100 µM

SMILES: COCCCNC(=O)C1=C(C)NC(C)=C(C(=O)NCCCOC)C1
- TGI (M14 melanoma): > 100 µM
- TGI (NCI-H226 lung): > 100 µM
- TGI (LOX IMVI melanoma): > 100 µM
- TGI (TK-10 renal): > 100 µM
- TGI (HCT-116 colon): > 100 µM
- TGI (OVCAR-4 ovarian): > 100 µM
- TGI (KM12 colon): > 100 µM
- TGI (SNB-19 CNS): > 100 µM

SMILES: CNC(=O)N(CCC#N)CCCN(C(=O)NC)c1ccccc1
- TGI (M14 melanoma): > 100 µM
- TGI (NCI-H226 lung): > 100 µM
- TGI (LOX IMVI melanoma): > 100 µM
- TGI (TK-10 renal): > 100 µM
- TGI (HCT-116 colon): > 100 µM
- TGI (OVCAR-4 ovarian): > 100 µM
- TGI (KM12 colon): > 100 µM
- TGI (SNB-19 CNS): > 100 µM

SMILES: c1ccc(CNCCCCNCCCNCc2ccccc2)cc1
- TGI (M14 melanoma): 86.5 µM
- TGI (NCI-H226 lung): 41.4 µM
- TGI (LOX IMVI melanoma): 32.7 µM
- TGI (TK-10 renal): 77.4 µM
- TGI (HCT-116 colon): 32.2 µM
- TGI (OVCAR-4 ovarian): 38.2 µM
- TGI (KM12 colon): 40.5 µM
- TGI (SNB-19 CNS): 32.7 µM

SMILES: COC(=O)[C@@H]1CN(C(C)=O)C(=O)N1C(=O)OCc1ccccc1
- TGI (M14 melanoma): > 100 µM
- TGI (NCI-H226 lung): > 100 µM
- TGI (LOX IMVI melanoma): > 100 µM
- TGI (TK-10 renal): > 100 µM
- TGI (HCT-116 colon): > 100 µM
- TGI (OVCAR-4 ovarian): > 100 µM
- TGI (KM12 colon): > 100 µM
- TGI (SNB-19 CNS): > 100 µM

SMILES: CC(NC(=O)C(N)CC(=O)O)NC(=O)C1CCC1 (configuration not stated)
- TGI (M14 melanoma): > 100 µM
- TGI (NCI-H226 lung): > 100 µM
- TGI (LOX IMVI melanoma): > 100 µM
- TGI (TK-10 renal): > 100 µM
- TGI (HCT-116 colon): > 100 µM
- TGI (OVCAR-4 ovarian): > 100 µM
- TGI (KM12 colon): > 100 µM
- TGI (SNB-19 CNS): > 100 µM

SMILES: CC(C)NC(=O)OCc1c(COC(=O)NC(C)C)c(-c2cc[n+](COC(=O)C(C)(C)C)cc2)n2c1CCC2
- TGI (M14 melanoma): > 100 µM
- TGI (NCI-H226 lung): > 100 µM
- TGI (LOX IMVI melanoma): > 100 µM
- TGI (TK-10 renal): > 100 µM
- TGI (HCT-116 colon): > 100 µM
- TGI (OVCAR-4 ovarian): > 100 µM
- TGI (KM12 colon): > 100 µM
- TGI (SNB-19 CNS): > 100 µM

SMILES: Cc1ccc(Nc2c(C#N)[n+]([O-])c3cc(Cl)ccc3[n+]2[O-])cc1
- TGI (M14 melanoma): > 100 µM
- TGI (NCI-H226 lung): > 100 µM
- TGI (LOX IMVI melanoma): > 100 µM
- TGI (TK-10 renal): > 100 µM
- TGI (HCT-116 colon): > 100 µM
- TGI (OVCAR-4 ovarian): > 100 µM
- TGI (KM12 colon): > 100 µM
- TGI (SNB-19 CNS): > 100 µM

SMILES: Cc1oc2c(Cl)cc(O)c(Cl)c2c2cccc1-2
- TGI (M14 melanoma): > 100 µM
- TGI (NCI-H226 lung): 61.6 µM
- TGI (LOX IMVI melanoma): 36.1 µM
- TGI (TK-10 renal): > 100 µM
- TGI (HCT-116 colon): 36.4 µM
- TGI (OVCAR-4 ovarian): 36.9 µM
- TGI (KM12 colon): 47.4 µM
- TGI (SNB-19 CNS): > 100 µM

SMILES: C=C(C)[C@@]1(OC(=O)c2cc([N+](=O)[O-])cc([N+](=O)[O-])c2)C[C@@H]2CCCC[C@@H]21
- TGI (M14 melanoma): > 100 µM
- TGI (NCI-H226 lung): > 100 µM
- TGI (LOX IMVI melanoma): > 100 µM
- TGI (TK-10 renal): > 100 µM
- TGI (HCT-116 colon): > 100 µM
- TGI (OVCAR-4 ovarian): > 100 µM
- TGI (KM12 colon): > 100 µM
- TGI (SNB-19 CNS): > 100 µM

SMILES: O=c1oc2ccccc2c(O)c1/C=N/C(=S)NCCc1ccccc1
- TGI (M14 melanoma): > 100 µM
- TGI (NCI-H226 lung): > 100 µM
- TGI (LOX IMVI melanoma): > 100 µM
- TGI (TK-10 renal): > 100 µM
- TGI (HCT-116 colon): > 100 µM
- TGI (OVCAR-4 ovarian): > 100 µM
- TGI (KM12 colon): > 100 µM
- TGI (SNB-19 CNS): > 100 µM

SMILES: CCOC(=O)CSc1nnc2cc(CN3CCCC3)c(-c3ccc(Cl)cc3)nn12
- TGI (M14 melanoma): > 100 µM
- TGI (NCI-H226 lung): > 100 µM
- TGI (LOX IMVI melanoma): > 100 µM
- TGI (TK-10 renal): > 100 µM
- TGI (HCT-116 colon): > 100 µM
- TGI (OVCAR-4 ovarian): > 100 µM
- TGI (KM12 colon): > 100 µM
- TGI (SNB-19 CNS): > 100 µM

SMILES: O=S(=O)(O)c1ccc(N=Nc2c(O)ccc3cc(Br)ccc23)cc1
- TGI (M14 melanoma): > 100 µM
- TGI (LOX IMVI melanoma): > 100 µM
- TGI (TK-10 renal): > 100 µM
- TGI (HCT-116 colon): > 100 µM
- TGI (OVCAR-4 ovarian): > 100 µM
- TGI (KM12 colon): > 100 µM
- TGI (SNB-19 CNS): > 100 µM

SMILES: N#Cc1c(N)[nH]c(=S)c(C#N)c1-c1ccccc1
- TGI (NCI-H226 lung): > 100 µM
- TGI (LOX IMVI melanoma): > 100 µM
- TGI (TK-10 renal): > 100 µM
- TGI (HCT-116 colon): > 100 µM
- TGI (KM12 colon): > 100 µM
- TGI (SNB-19 CNS): > 100 µM

SMILES: CCOc1ccc(N/C(Cl)=C(Cl)\C(=C(\Nc2ccc(OCC)cc2)n2nnc3ccccc32)[N+](=O)[O-])cc1
- TGI (M14 melanoma): 17.3 µM
- TGI (NCI-H226 lung): 60.5 µM
- TGI (LOX IMVI melanoma): 3.96 µM
- TGI (TK-10 renal): 17.1 µM
- TGI (HCT-116 colon): 5.29 µM
- TGI (OVCAR-4 ovarian): 30.8 µM
- TGI (KM12 colon): > 57.6 µM
- TGI (SNB-19 CNS): 34.4 µM

SMILES: c1ccc(-n2nc3ccc4nonc4c3n2)cc1
- TGI (M14 melanoma): > 100 µM
- TGI (LOX IMVI melanoma): > 100 µM
- TGI (TK-10 renal): > 100 µM
- TGI (HCT-116 colon): > 100 µM
- TGI (OVCAR-4 ovarian): > 100 µM
- TGI (KM12 colon): > 100 µM
- TGI (SNB-19 CNS): > 100 µM

SMILES: CCOC(=O)C(C)NC(=O)C(C)NC(=O)C(C)NC(=O)C(C)NC(=O)C(C)NC(=O)OCc1ccccc1 (configuration not stated)
- TGI (M14 melanoma): > 100 µM
- TGI (NCI-H226 lung): > 100 µM
- TGI (LOX IMVI melanoma): > 100 µM
- TGI (TK-10 renal): > 100 µM
- TGI (HCT-116 colon): > 100 µM
- TGI (OVCAR-4 ovarian): > 100 µM
- TGI (KM12 colon): > 100 µM
- TGI (SNB-19 CNS): > 100 µM

SMILES: NC(=S)N/N=C1\NC(=O)/C(=C/c2ccc3c(c2)OCO3)S1
- TGI (M14 melanoma): 68.3 µM
- TGI (NCI-H226 lung): 78.7 µM
- TGI (LOX IMVI melanoma): 85.2 µM
- TGI (TK-10 renal): > 100 µM
- TGI (HCT-116 colon): 85 µM
- TGI (OVCAR-4 ovarian): 75.8 µM
- TGI (KM12 colon): 55.3 µM
- TGI (SNB-19 CNS): 53.6 µM
